Source: patent publication US20230286973A1, “PROTEIN SECRETION INHIBITORS” (KEZAR LIFE SCIENCES, priority 2020, published 2023)
Where “and” joins values, the source holds several entries; their conditions need not be identical. Equal entries are not always repeated.

Experiments:
[1] = system: HER3-ss+4aa/Gaussia Luciferase; experiment: Dox-Induced Her3-ss-Gluc Assay; type: cell-based; details: 24 hr Dox induction; 293FRT/TO cells; read-out: 24 hr Dox Inducible Her3(ss + 4)Gluc 293FRT/TO: Mean IC50
How it was run: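 Stable Flp-In 293 T-REx line expressing Gaussia luciferase fused to the HER3 signal sequence plus 4 amino acids under tetracycline-regulated (T-REx) control. Cells plated the day before, then treated with compound dilutions in DMSO/media containing doxycycline and incubated at 37° C., 5% CO2.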

[2] = Liver Microsome Stability Assay (monkey); details: monkey liver microsomes, with NADPH, 1.0 uM compound
Method: (§1) Stability of a compound was assessed in the presence of liver microsomes from various sources—mouse, rat, monkey and human liver microsomes. 1.0 uM compound, 0.4% DMSO in 0.1 M Potassium Phosphate with 1.0 mg/mL liver microsomes, were incubated at 37° C. with or without 1 mM NADPH. The samples were quenched at 0, and 30 minutes.

[3] = system: multiple myeloma cell line NCI-H929; experiment: H929 Cell Viability Assay; type: cell-based, human; details: NCI-H929 cells, Celltiter-Glo
How it was run: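 NCI-H929 cells, resuspended in RPMI 1640 with 10% FBS and 2 mM glutamine, were treated with compound dilutions in DMSO/media and incubated 48 hours at 37° C, 5% CO2. Viability was read by CellTiter-Glo luminescence. Compounds drawn without stereochemistry were tested as stereoisomer mixtures.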

[4] = system: IL-2-FL/Gaussia Luciferase; experiment: Dox Induced IL2-FL-Gluc Assay; type: cell-based; details: for IC50: 24 hr Dox induction, 293FRT/TO cells, read-out: 24 hr Dox Inducible IL2FLGluc 293FRT/TO: Mean IC50; for 24 hr Dox Inducible IL2FLGluc 293FRT/TO: IL2/PD1: ratio of IL2FLGluc IC50 to PD1ssGluc IC50
How it was run: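 Flp-In 293 T-REx cells stably carrying doxycycline-inducible full-length IL-2 (aa 1-153) fused at its C-terminus to Gaussia luciferase, selected with hygromycin and blasticidin. Cells were plated the day before, then treated with compounds in DMSO/media containing doxycycline at 37° C, 5% CO2.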

[5] = Liver Microsome Stability Assay (mouse); details: mouse liver microsomes, with NADPH, 1.0 uM compound
Method: as §1

[6] = Liver Microsome Stability Assay (rat); details: rat liver microsomes, with NADPH, 1.0 uM compound
Method: as §1

[7] = system: TNFα-FL/Gaussia Luciferase; experiment: Dox Induced TNFα-FL-Gluc Assay; type: cell-based; details: for IC50: 24 hr Dox induction, 293FRT/TO cells, read-out: 24 hr Dox Inducible TNFaFLGluc 293FRT/TO: Mean IC50; for 24 hr Dox Inducible TNFaFLGluc 293FRT/TO: TNF/PD1: ratio of TNFaFLGluc IC50 to PD1ssGluc IC50
How it was run: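 Flp-In 293 T-REx cells stably expressing full-length TNFα (aa 1-233) fused at its C-terminus to Gaussia luciferase under tetracycline-regulated control were plated the day before assay. Compound dilutions in DMSO/media containing doxycycline were added and incubated at 37 °C, 5% CO2. Unspecified stereochemistry denotes stereoisomer mixtures.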

[8] = system: multiple myeloma cell line U266B1; experiment: U266 Cell Viability Assay; type: cell-based, human; details: U266B1 cells, Celltiter-Glo
How it was run: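 Cells grown in RPMI 1640 with 10% FBS, 2 mM glutamine and penicillin/streptomycin were exposed to compound dilutions in DMSO/media for 48 hours at 37° C., 5% CO2. Viability was read by CellTiter-Glo luminescence. Undefined stereocentres mean data for stereoisomer mixtures.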

[9] = Liver Microsome Stability Assay (human); details: human liver microsomes, with NADPH, 1.0 uM compound
Method: as §1

[10] = system: PD1-ss+10aa/Gaussia Luciferase; experiment: Dox-Induced PD1-ss-Gluc Assay; type: cell-based; details: 24 hr Dox induction; 293FRT/TO cells; read-out: 24 hr Dox Inducible PD1ssGluc 293FRT/TO: Mean IC50
How it was run: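 Doxycycline-induced expression of a PD1-ss+10aa/Gaussia luciferase reporter is measured in stable Flp-In 293 T-REx cells. Compound dilutions containing doxycycline are added one day after plating and incubated at 37 °C, 5% CO2. Values for unassigned stereocentres refer to stereoisomer mixtures.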

| IC50 [1] | Liver Microsome Stability (Multiple Species): Monkey - % Remaining after 30 min w/NADPH [2] | EC50 ([3]; Homo sapiens, NCI-H929, 48 h) [nM] | IC50 [4] | Liver Microsome Stability (Multiple Species): Mouse - % Remaining after 30 min w/NADPH [5] | Liver Microsome Stability (Multiple Species): Rat - % Remaining after 30 min w/NADPH [6] | IC50 [7] | EC50 ([8]; Homo sapiens, U-266, 48 h) [µM] | Liver Microsome Stability (Multiple Species): Human - % Remaining after 30 min w/NADPH [9] | IC50 [10] | EC50 ([3]; 48 hr) | EC50 ([8]; 48 hr) [µM] | Compound | 24 hr Dox Inducible IL2FLGluc 293FRT/TO: IL2/PD1 [4] | 24 hr Dox Inducible TNFaFLGluc 293FRT/TO: TNF/PD1 [7] |
| --- | --- | --- | --- | --- | --- | --- | --- | --- | --- | --- | --- | --- | --- | --- |
| 34.3 nM | 0.1% | 425 | 55.5 nM | 0.76% | 0.29% | 220 nM | > 25 | 0.08% | 16.4 nM | – | – | CC(=O)NCc1ccc(N2CCC[C@@H]2c2csc(NC(=O)c3cccn3Cc3ccncc3)n2)cc1 [Compound A45, (R)-N-(4-(1-(4-(acetamidomethyl)phenyl)pyrrolidin-2-yl)thiazol-2-yl)-1-(pyridin-4-ylmethyl)-1H-pyrrole-2-carboxamide] | 3.4 | 13.4 |
| 6.51 nM | 2.39% | 79 | 4.11 nM | 4.16% | 9.73% | 52 nM | > 25 | 3.12% | 3 nM | – | – | CC(=O)Nc1ccc(N2CCC[C@@H]2c2csc(NC(=O)c3cccn3Cc3ccncc3)n2)cc1 [Compound A46, (R)-N-(4-(1-(4-acetamidophenyl)pyrrolidin-2-yl)thiazol-2-yl)-1-(pyridin-4-ylmethyl)-1H-pyrrole-2-carboxamide] | 1.4 | 17.3 |
| 83.5 nM | 0.06% | 1210 | 82.3 nM | 0.02% | 1.17% | 554 nM | > 25 | 1.82% | 43.6 nM | – | – | CC(=O)N(C)c1ccc(N2CCC[C@@H]2c2csc(NC(=O)c3cccn3Cc3ccncc3)n2)cc1 [Compound A47] | 1.9 | 12.7 |
| 17.4 nM | 1.44% | 150 | 13.5 nM | 4.71% | 0.64% | 101 nM | > 25 | 2.91% | 6.13 nM | – | – | COCc1ccc(N2CCC[C@@H]2c2csc(NC(=O)c3cccn3Cc3ccncc3)n2)cc1 [Compound A48, (R)-N-(4-(1-(4-(methoxymethyl)phenyl)pyrrolidin-2-yl)thiazol-2-yl)-1-(pyridin-4-ylmethyl)-1H-pyrrole-2-carboxamide] | 2.2 | 16.4 |
| 1640 nM | 0.94% | 9860 | 2220 nM | 29.4% | 10.7% | > 25000 nM | 8.12 | 1.94% | 778 nM | – | – | CNCc1ccc(N2CCC[C@@H]2c2csc(NC(=O)c3cccn3Cc3ccncc3)n2)cc1 [Compound A49, (R)-N-(4-(1-(4-((methylamino)methyl)phenyl)pyrrolidin-2-yl)thiazol-2-yl)-1-(pyridin-4-ylmethyl)-1H-pyrrole-2-carboxamide] | 2.8 | >32.1 |
| 917 nM | 1.91% | 4950 | 1040 nM | 64.3% | 0.4% | 19300 nM | 6.06 | 2.67% | 529 nM | – | – | O=C(Nc1nc([C@H]2CCCN2c2ccc(C3CCNCC3)cc2)cs1)c1cccn1Cc1ccncc1 [Compound A51, (R)-N-(4-(1-(4-(piperidin-4-yl)phenyl)pyrrolidin-2-yl)thiazol-2-yl)-1-(pyridin-4-ylmethyl)-1H-pyrrole-2-carboxamide] | 2 | 36.5 |
| 450 nM | 0.33% | 20600 | 912 nM | 3.47% | 0.63% | 4050 nM | > 25 | 1.11% | 340 nM | – | – | Cc1cc(Cn2cccc2C(=O)Nc2nc([C@H]3CCCN3c3ccccc3)cs2)ccn1 [Compound A52, (R)-1-((2-methylpyridin-4-yl)methyl)-N-(4-(1-phenylpyrrolidin-2-yl)thiazol-2-yl)-1H-pyrrole-2-carboxamide] | 2.7 | 11.9 |
| 31.5 nM | 0.33% | 20600 | 54.3 nM | 3.47% | 0.63% | 301 nM | > 25 | 1.11% | 23.7 nM | – | – | Cc1cnccc1Cn1cccc1C(=O)Nc1nc([C@H]2CCCN2c2ccccc2)cs1 [Compound A53, (R)-1-((3-methylpyridin-4-yl)methyl)-N-(4-(1-phenylpyrrolidin-2-yl)thiazol-2-yl)-1H-pyrrole-2-carboxamide] | 2.3 | 12.7 |
| 41.4 nM | 0.1% | 682 | 58.1 nM | 18.3% | 0.11% | 426 nM | > 25 | 0.34% | 19.5 nM | – | – | CC(=O)N1CCC(c2ccc(N3CCC[C@@H]3c3csc(NC(=O)c4cccn4Cc4ccncc4)n3)cc2)CC1 [Compound A55, (R)-N-(4-(1-(4-(1-acetylpiperidin-4-yl)phenyl)pyrrolidin-2-yl)thiazol-2-yl)-1-(pyridin-4-ylmethyl)-1H-pyrrole-2-carboxamide] | 3 | 21.8 |
| 9.54 nM and 8.51 nM and 7.39 nM | 27.3% and 25.8% | 152 | 10.4 nM and 6.77 nM and 8.74 nM | 81.1% and 81.8% | 48.3% and 54.8% | 111 nM and 63.2 nM and 96.9 nM | > 25 | 43.9% and 46% | 5.8 nM and 4.66 nM and 4.85 nM | 149 nM and 165 nM | > 24.8 | O=C(Nc1nc([C@H]2CCCN2c2ccc(C(F)(F)F)cc2)cs1)c1cccn1Cc1ccnc(F)c1 [Compound A56, (R)-1-((2-fluoropyridin-4-yl)methyl)-N-(4-(1-(4-(trifluoromethyl)phenyl)pyrrolidin-2-yl)thiazol-2-yl)-1H-pyrrole-2-carboxamide] | 1.8 and 1.5 | 19.1 and 13.6 and 20 |
